According to patent publication US20250025447A1, “TOLL-LIKE RECEPTOR AGONISTS AND ANTAGONISTS AND USES THEREOF” (Regents of the University of Minnesota, priority 2021, published 2025):
Entries after “also recorded” stand apart in the source; their conditions may differ. Where two headings read alike, the source gives them in different places.

Legend:
[1] = system: TNFα, IFNγ and IL-1β production in hPBMCs; experiment: Competition assay of agonist-induced cytokine induction in hPBMCs (ELISA); format: cell-based, human
Experimental: Preparation and stimulation of PBMC. Human PBMC can be isolated from heparinized blood by standard density-gradient centrifugation over Ficoll-Paque Plus (Pharmacia, Uppsala, Sweden). Briefly, peripheral blood can be drawn by venipuncture into green top heparin tubes. The blood can be diluted 1:1 with PBS, and then layered upon Ficoll-Paque Plus in 50 ml centrifuge tubes. The tubes can be spun at 2000 rpm for 20 min, after which the buffy coats can be collected and washed twice in PBS. The isolated PBMC can be counted and added to the wells of a 24-well plate (5×10^5 cells/1 ml/well) in RPMI 1640 supplemented with 10% FBS, penicillin, streptomycin, sodium pyruvate, nonessential amino acids, and HEPES. TLR agonist 5 and TLR antagonist 3 can be prepared in DMSO and added to the wells (in triplicate) to reach the desired final concentrations. Some wells may only contain DMSO. After 24 h, culture supernatants can be collected, aliquoted, and frozen at −80° C. until analysis.
Quantitation of IL-1p, IFNγ, and TNFα. The amount of cytokines present in the supernatants after stimulation can be determined via Enzyme-Linked Immunosorbent Assay (ELISA) using a BioLegend ELISA MAX Deluxe Set for each cytokine tested. The assays can be conducted following the protocols provided by the assay set. Cell culture supernatants from hPBMCs can be used directly without dilution for the determination of IFNγ and TNFα but can be diluted accordingly for the IL-1β so the observed cytokine level could fall into the linear range of the assay.
These cytokines can be of particular interest due to the role they play in the driving Th1 differentiation of immune cells and development of cellular immunity.

human TLR-7 [2] = molecular target: T1, human TLR-7 (Homo sapiens, UniProt Q9NYK1); experiment: TLR-7 HEK-SEAP reporter competition (antagonist) assay against agonist compound 5; details: for TLR-7 antagonist activity against compound 5 (in words): agonist compound 5 at different concentrations, FIGS. 1A-D; for IC50: read-out: TLR-7 reporter cell activity, IC50 of antagonists, relative IC50 at fixed concentration of compound 5, 3 μM
T1 sequence (Q9NYK1 27-1049): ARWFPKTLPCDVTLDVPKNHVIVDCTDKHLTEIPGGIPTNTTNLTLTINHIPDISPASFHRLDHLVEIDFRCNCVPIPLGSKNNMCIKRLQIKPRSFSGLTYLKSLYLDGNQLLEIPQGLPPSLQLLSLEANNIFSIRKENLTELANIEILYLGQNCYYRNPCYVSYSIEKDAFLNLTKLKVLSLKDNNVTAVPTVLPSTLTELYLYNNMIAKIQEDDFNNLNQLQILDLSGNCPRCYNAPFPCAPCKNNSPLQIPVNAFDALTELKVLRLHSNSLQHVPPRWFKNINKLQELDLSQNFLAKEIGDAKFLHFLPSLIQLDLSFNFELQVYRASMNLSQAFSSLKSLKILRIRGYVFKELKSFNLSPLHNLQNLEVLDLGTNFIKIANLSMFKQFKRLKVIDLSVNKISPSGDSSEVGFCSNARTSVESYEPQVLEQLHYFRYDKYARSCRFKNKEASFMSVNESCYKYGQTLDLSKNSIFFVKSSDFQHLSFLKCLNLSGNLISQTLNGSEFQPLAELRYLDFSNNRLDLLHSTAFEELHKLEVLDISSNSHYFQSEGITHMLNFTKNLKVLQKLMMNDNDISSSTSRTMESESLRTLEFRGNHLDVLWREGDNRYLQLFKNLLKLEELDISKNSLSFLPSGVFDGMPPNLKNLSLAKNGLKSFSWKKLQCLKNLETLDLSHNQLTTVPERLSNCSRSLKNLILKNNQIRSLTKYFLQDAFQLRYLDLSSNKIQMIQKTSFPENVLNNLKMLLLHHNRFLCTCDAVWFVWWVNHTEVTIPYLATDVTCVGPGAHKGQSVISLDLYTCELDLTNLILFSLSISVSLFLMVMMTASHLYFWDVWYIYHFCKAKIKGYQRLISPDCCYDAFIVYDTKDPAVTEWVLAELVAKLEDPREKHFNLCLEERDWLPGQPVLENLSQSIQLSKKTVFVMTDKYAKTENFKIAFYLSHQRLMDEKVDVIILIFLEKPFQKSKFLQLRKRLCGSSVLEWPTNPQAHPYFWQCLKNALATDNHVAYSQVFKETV

human TLR-7 [3] = molecular target: T1, human TLR-7; experiment: TLR-7/NF-κB/SEAP reporter assay in HEK293 cells, agonist mode
human TLR-8 [4] = molecular target: T2, human TLR-8 (Homo sapiens, UniProt Q9NR97); experiment: TLR-8/NF-κB/SEAP reporter assay in HEK293 cells, agonist mode; details: HEK-SEAP reporter cells
T2 sequence (Q9NR97 27-1041): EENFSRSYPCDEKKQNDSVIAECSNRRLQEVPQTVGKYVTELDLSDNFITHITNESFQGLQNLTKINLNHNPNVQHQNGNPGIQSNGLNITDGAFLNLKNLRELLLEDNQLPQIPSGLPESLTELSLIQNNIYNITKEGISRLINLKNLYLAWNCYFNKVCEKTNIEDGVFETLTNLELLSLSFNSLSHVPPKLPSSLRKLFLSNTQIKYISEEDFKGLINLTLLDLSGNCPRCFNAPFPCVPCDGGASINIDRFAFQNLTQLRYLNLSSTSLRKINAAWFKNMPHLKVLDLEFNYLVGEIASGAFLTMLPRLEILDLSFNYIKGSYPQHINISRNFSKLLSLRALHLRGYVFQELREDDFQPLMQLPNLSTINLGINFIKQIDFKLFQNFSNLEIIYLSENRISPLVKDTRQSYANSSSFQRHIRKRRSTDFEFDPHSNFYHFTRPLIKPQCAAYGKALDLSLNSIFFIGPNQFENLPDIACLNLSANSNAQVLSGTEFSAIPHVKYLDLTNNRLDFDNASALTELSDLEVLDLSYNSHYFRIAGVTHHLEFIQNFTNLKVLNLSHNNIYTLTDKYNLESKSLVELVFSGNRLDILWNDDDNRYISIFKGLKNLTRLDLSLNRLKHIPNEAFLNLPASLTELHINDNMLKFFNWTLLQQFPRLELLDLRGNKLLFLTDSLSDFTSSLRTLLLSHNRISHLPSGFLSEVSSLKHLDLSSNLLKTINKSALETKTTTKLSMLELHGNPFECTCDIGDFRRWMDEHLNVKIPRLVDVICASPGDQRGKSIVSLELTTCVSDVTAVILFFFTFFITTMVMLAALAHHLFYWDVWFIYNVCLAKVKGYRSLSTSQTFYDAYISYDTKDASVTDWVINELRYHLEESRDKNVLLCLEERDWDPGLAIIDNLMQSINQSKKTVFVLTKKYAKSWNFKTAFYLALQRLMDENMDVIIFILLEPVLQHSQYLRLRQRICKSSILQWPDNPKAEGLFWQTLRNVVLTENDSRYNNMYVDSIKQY

human TLR-8 [5] = molecular target: T2, human TLR-8; experiment: TLR-8 HEK-SEAP reporter competition (antagonist) assay against agonist compound 5; details: agonist compound 5 at different concentrations, FIGS. 1A-D

## COC(=O)c1ccc2c(c1)nc(N)c1nc(CC(C)C)n(Cc3ccc(CN)cc3)c12 [Compound 3, methyl 4-amino-1-(4-(aminomethyl)benzyl)-2-isobutyl-1H-imidazo[4,5-c]quinoline-7-carboxylate]
[1]; agonist 5 induced, FIG. 4A
  inhibition of TNFα production: concentration-dependent reduction; also recorded: potent inhibitor
[1]; agonist 5 induced, FIG. 4B
  inhibition of IFNγ production: concentration-dependent reduction; also recorded: potent inhibitor
[1]; agonist 5 induced, FIG. 4C
  inhibition of IL-1β production: concentration-dependent reduction; also recorded: potent inhibitor
[1]; compound itself
  stimulatory activity in hPBMCs: devoid of stimulatory activity
Human TLR-7 [2]
  TLR-7 antagonist activity against compound 5 (in words): concentration-dependent shifts; also recorded: low μM antagonists
  IC50: 3.91 ± 0.15 µM

## COC(=O)c1ccc2c(c1)nc(N)c1nc(CC3CC3)n(CC(C)O)c12 (stereo not drawn) [Compound 2, methyl 4-amino-2-(cyclopropylmethyl)-1-(2-hydroxypropyl)-1H-imidazo[4,5-c]quinoline-7-carboxylate]
Human TLR-7 [3]
  EC50: 13.4 ± 1.5 µM
Human TLR-7 [3]; HEK-SEAP reporter cells
  TLR-7 agonist activity (in words): showed agonist activity
Human TLR-8 [4]
  TLR-8 agonist activity (in words): showed agonist activity
Human TLR-8 [4]; read-out: TLR-8 reporter cell activity, EC50, agonist
  EC50: 18.8 ± 3.4 µM

## COC(=O)c1ccc2c(c1)nc(N)c1nc(CC3CC3)n(Cc3ccc(CN)cc3)c12 [Compound 4, methyl 4-amino-1-(4-(aminomethyl)benzyl)-2-(cyclopropylmethyl)-1H-imidazo[4,5-c]quinoline-7-carboxylate]
Human TLR-7 [2]
  TLR-7 antagonist activity against compound 5 (in words): concentration-dependent shifts; also recorded: low μM antagonists
  IC50: 4.1 ± 0.2 µM

## COC(=O)c1ccc2c(c1)nc(N)c1nc(CC(C)C)n(CC(C)O)c12 (stereo not drawn) [Compound 1, methyl 4-amino-1-(2-hydroxypropyl)-2-isobutyl-1H-imidazo[4,5-c]quinoline-7-carboxylate]
Human TLR-7 [3]; HEK-SEAP reporter cells
  TLR-7 agonist activity (in words): showed agonist activity
Human TLR-7 [3]; read-out: TLR-7 reporter cell activity, EC50, HEK-SEAP reporter cells, agonist
  EC50: 29.4 ± 2.2 µM
Human TLR-8 [5]
  TLR-8 antagonist activity against compound 5 (in words): reduction of TLR-8 activity
